Molecules are shown by their SMILES. ± gives the expanded uncertainty stated by the source.

The nature of series [1]: xn = mol fraction of the nth substance listed. Particulars: 101 kPa, Liquid.
Series [2] in a line: refractive index (Na D-line) (dimensionless). The following applies: 298.15 K; 101.33 kPa; Liquid; Standard Abbe refractometry.

As for `c1ccccc1` [benzene] + CN(C)C=O, the mass density in series [1] (293.15 K, x1 = 1) is 878.96 ± 0.33 kg/m3; in series [1] (303.15 K, x1 = 1), 868.21 ± 0.34 kg/m3; in series [1] (313.15 K, x1 = 1), 857.4 ± 0.36 kg/m3; in series [1] (323.15 K, x1 = 1), 846.55 ± 0.38 kg/m3; in series [1] (333.15 K, x1 = 1), 835.66 ± 0.39 kg/m3; in series [1] (343.15 K, x1 = 1), 824.71 ± 0.41 kg/m3.
`Cc1ccccc1` [toluene]: the refractive index in series [2] is recorded as 1.4965 ± 0.0008.
Still for that read-out and setting: to `c1ccccc1` [benzene] belongs 1.5009 ± 0.0007.
As for `Cc1ccccc1` [toluene] + CN(C)C=O, the mass density in series [1] (293.15 K, x1 = 1) came out at 866.8 ± 0.94 kg/m3; in series [1] (303.15 K, x1 = 1), 857.53 ± 0.94 kg/m3; in series [1] (313.15 K, x1 = 1), 848.23 ± 0.94 kg/m3; in series [1] (323.15 K, x1 = 1), 838.91 ± 0.94 kg/m3; in series [1] (333.15 K, x1 = 1) it was 829.55 ± 0.95 kg/m3; in series [1] (343.15 K, x1 = 1), 820.17 ± 0.95 kg/m3. The mass density in series [1] (353.15 K, x1 = 1) is 810.77 ± 0.95 kg/m3.
Consider `CCc1ccccc1` [ethylbenzene], for which the refractive index in series [2] worked out at 1.4962 ± 0.0008.
Turning to `CN(C)C=O` [dimethylformamide] + CCc1ccccc1, the mass density in series [1] (293.15 K, x2 = 0) came out at 948.58 ± 0.25 kg/m3; in series [1] (303.15 K, x2 = 0), 939.46 ± 0.26 kg/m3; in series [1] (313.15 K, x2 = 0), 930.12 ± 0.28 kg/m3; in series [1] (323.15 K, x2 = 0), 920.55 ± 0.29 kg/m3; in series [1] (333.15 K, x2 = 0), 910.75 ± 0.3 kg/m3; in series [1] (343.15 K, x2 = 0), 900.73 ± 0.32 kg/m3. Also, in series [1] (353.15 K, x2 = 0), the mass density was found to be 890.48 ± 0.34 kg/m3.
Regarding `CN(C)C=O` [dimethylformamide], the refractive index in series [2] amounted to 1.4307 ± 0.0007.

One may read the mass density as the mass of a sample divided by its volume. A word on the refractive index: it is a measure of how strongly the sample bends light.

The record behind these values is the NIST ThermoML archive (doi:10.1016/j.jct.2006.07.022).
